# Data as given in patent publication US11154589B2, “Antimicrobial composition combinations comprising star shaped peptide polymers” (The University of Melbourne, priority 2016, dated 2021).
# “And” between values parts separate entries of the source, which are not always exact repeats. Equal values may be shown once. Marks after values point to notes of the source that are not given here.
# What was measured:
# [1] = system: Klebsiella pneumoniae (K. pneumoniae, ATCC 13883); experiment: S16-antibiotic co-administration, synergy by Bliss Independence and HSA models; format: cell-based
# Procedure: (§1) The 96-well plate was then incubated at 37° C. for 1.5 or 3 h. For each well, microbial solution was diluted with saline (0.9% NaCl solution) using an appropriate dilution factor and placed on a LB agar plate (LB broth containing 15 g/L Oxoid Blood Agar Base No. 2). For E. coli, K. pneumoniae, and A. Baumannii (ATCC 19606 and FADDI-AB156), the agar plates were incubated overnight at room temperature, and then at 37° C. with aeration for 2 h. For P. Aeruginosa (ATCC 47085 and FADDI-PA067), the agar plates were incubated at 37° C. with aeration. The number of colony-forming units (CFU) was counted and expressed as CFU/mL. Positive controls consisting of cells without any treatment were used. […] A minimum of two independent experiments (biological replicates) of the assay were conducted and three technical replicates were used in each experiment. Data is expressed as mean±standard deviation (SD) and analysed using student's t-test.
# (§2) The Bliss Independence and HSA models were used to calculate drug synergism. […] Biotechnol. 31, 160-165 (2013). With the Bliss Independence model, synergism was calculated using the formula, BICAB=A+B−AB (1), where A and B are the effects of the two drugs in isolation and BICAB is the combined effect of the two drugs as predicted by the Bliss Independence model. […] In the HSA model, if CAB is greater than the greater of A and B, CAB>max(A, B), synergy is observed. The quantitative effect of the compounds when administered alone (i.e., A and B) or in combination (i.e., CAB) was defined as the fractional reduction of the population, R=1−CFUt/CFU0, where CFUt is the CFU/mL measured after treatment, and CFU0 is the CFU/mL measured before treatment.
# [2] = system: Pseudomonas aeruginosa (P. aeruginosa, ATCC 47085); experiment: as above; format: cell-based
# Procedure: as §1, §2
# [3] = system: Acinetobacter baumannii (A. baumannii, ATCC 19606); experiment: as above; format: cell-based
# Procedure: as §1, §2
# [4] = system: Escherichia coli (E. coli, ATCC 25922); experiment: as above; format: cell-based
# Procedure: as §1, §2
# [5] = system: CMDR A. baumannii (FADDI-AB156); experiment: as above; format: cell-based, Acinetobacter baumannii
# Procedure: as §1, §2
# [6] = system: CMDR P. aeruginosa (FADDI-PA067); experiment: as above; format: cell-based, Pseudomonas aeruginosa
# Procedure: as §1, §2
# [7] = system: CMDR A. baumannii (FADDI-AB156); experiment: MBC determination (in vitro antimicrobial experiment, CFU counting); format: cell-based, Acinetobacter baumannii; conditions: compound alone
# Procedure: (§3) Freeze-dried cultures of Escherichia coli (E. coli, ATCC 25922), Klebsiella pneumoniae (K. pneumoniae, ATCC 13883), Pseudomonas aeruginosa (P. aeruginosa, ATCC 47085), Acinetobacter baumannii (A. baumannii, ATCC 19606), colistin and multidrug-resistant (CMDR) A. baumannii (FADDI-AB156), and CMDR P. aeruginosa (FADDI-PA067) were grown aerobically and maintained by passage at ambient temperature on horse blood agar (10% v/v defibrinated horse blood, 4.4% w/v Oxoid Blood Agar Base No. 2). Overnight cultures were made from transferring a colony (ca. half a loop) from the agar plates to culture tubes containing sterilized Luria-Bertani broth (LB, 1% w/v Bacto™ Tryptone, 1% w/v NaCl, 0.5% w/v Oxoid Yeast Extract) (20 mL). Bacterial cultures were incubated overnight at 37° C. with aeration and without agitation, with the exception of the two P. aeruginosa strains (ATCC 47085 and FADDI-PA067) which were cultured at 37° C. with aeration and agitation (150 rpm). On the next day, for E. coli, K. pneumonia, P. aeruginosa (ATCC 47085), and CMDR P. aeruginosa (FADDI-PA067), small aliquots (i.e., 0.5-3 mL) were taken from the culture tubes, further diluted with LB (20 mL), and incubated for 3-4 h at 37° C. with aeration before use. All bacterial cultures were cultured without agitation, with the exception of P. aeruginosa ATCC 47085 and FADDI-PA067 which were cultured with shaking at 150 rpm. For A. baumannii, an aliquot of 0.5 mL was taken from the overnight culture tube, further diluted with LB (200 mL), and incubated overnight at 37° C. with aeration before use.
# as §1
# [8] = system: Klebsiella pneumoniae (K. pneumoniae, ATCC 13883); experiment: as above; format: cell-based; conditions: compound alone
# Procedure: as §3, §1
# [9] = system: Pseudomonas aeruginosa (P. aeruginosa, ATCC 47085); experiment: as above; format: cell-based; conditions: compound alone; P. aeruginosa (wild-type)
# Procedure: as §3, §1
# [10] = system: Acinetobacter baumannii (A. baumannii, ATCC 19606); experiment: as above; format: cell-based; conditions: compound alone; A. baumannii (wild-type)
# Procedure: as §3, §1
# [11] = system: Escherichia coli (E. coli, ATCC 25922); experiment: as above; format: cell-based; conditions: compound alone
# Procedure: as §3, §1
# [12] = system: rat hepatoma (H4IIE) cells; experiment: Apoptosis/necrosis assay (mammalian cell viability); conditions: single agent at a dose equivalent to its MBC (against CMDR A. baumannii); 90 min incubation
# Procedure: Rat hepatoma cells (H4IIE) were cultivated in DMEM medium (supplemented with 10% FBS, 1× GlutaMAX™, and 1× penicillin-streptomycin) in a humidified atmosphere containing 5% CO2 at 37° C. Cells were seeded in a T75 flask (ca. 3×10^6 cells/ml) and passaged twice a week prior to performing the subsequent cell viability studies.
# Adherent H4IIE cells (obtained from the ATCC, and throughout the course of the study cells were checked for mycoplasma contamination using Mycoplasma stain kit, Myc1, Sigma) were grown to 80% confluence and trypsinised prior to assay. H4IIE cells were chosen for this study as they are standard cell lines used in toxicity studies. Cells were diluted 1:2 with ‘complete’ DMEM and seeded in a 24-well plate (1 mL per well). The cells were incubated at 37° C. in 5% CO2 for 24 h until ca. 95% confluence. The medium was removed. […] The cells were then harvested and all well contents were transferred to round-bottomed polypropylene tubes (5 mL). The cells were washed with cold DPBS, then stained with YO-PRO®-1 and PI (0.2 mL from a stock solution, whereby both dyes were diluted 1:1000 in cold DPBS, per well), and incubated on ice for 20 to 30 min. The cells were analyzed by flow cytometry (Cytomics FC 500 MPL System). Standard compensation was performed using single-colour stained cells. Negative controls using untreated cells were included. […]
# [13] = system: CMDR P. aeruginosa (FADDI-PA067); experiment: MBC determination (in vitro antimicrobial experiment, CFU counting); format: cell-based, Pseudomonas aeruginosa; conditions: compound alone
# Procedure: as §3, §1
# [14] = S16 and antibiotic co-administered, each at MBC50, 3 h
# [15] = antibiotic in combination with S16, 3 h, Bliss Independence model
# [16] = antibiotic in combination with S16, 3 h, Highest Single Agent model
# [17] = co-administered S16 (at MBC50) and antibiotic, antibiotic concentration giving at least 2-log reduction in CFU/mL, 3 h
structure (smiles),measurement,setting,value
"O=[N+]([O-])[O-].[Ag+] [Ag^+, silver nitrate]",Interaction with S16 as evaluated by the Bliss Independence and HSA models (in words),[1]; 3 h time point,synergize
same,MBC in combination,[1]; [14],5.3 µM
same,Antimicrobial activity on co-administration with S16 compared to compounds alone (log change in CFU/mL),"[1]; all compounds at MBC50, t=3 h",significantly enhanced antimicrobial activity
same,Synergistic? (Yes/No) Bliss*,[1]; [15],Yes
same,Synergistic? (Yes/No) HAS*,[1]; [16],Yes
same,Interaction with S16 as evaluated by the Bliss Independence and HSA models (in words),"[2]; P. aeruginosa wild-type, 3 h time point",synergize
same,Antimicrobial activity on co-administration with S16 compared to compounds alone (log change in CFU/mL),"[2]; P. aeruginosa wild-type, all compounds at MBC50, t=3 h",significantly enhanced antimicrobial activity
same,MBC in combination,"[2]; P. aeruginosa, S16 and antibiotic co-administered, each at MBC50, 3 h",0.5 µM
same,Synergistic? (Yes/No) Bliss*,"[2]; antibiotic in combination with S16, P. aeruginosa, 3 h, Bliss Independence model",Yes
same,Synergistic? (Yes/No) HAS*,"[2]; antibiotic in combination with S16, P. aeruginosa, 3 h, Highest Single Agent model",Yes
same,Interaction with S16 as evaluated by the Bliss Independence and HSA models (in words),"[3]; A. baumannii wild-type, 3 h time point",synergize
same,Antimicrobial activity on co-administration with S16 compared to compounds alone (log change in CFU/mL),"[3]; A. baumannii wild-type, all compounds at MBC50, t=3 h",significantly enhanced antimicrobial activity
same,MBC in combination,"[3]; A. baumannii, S16 and antibiotic co-administered, each at MBC50, 3 h",4.1 µM
same,Synergistic? (Yes/No) Bliss*,"[3]; antibiotic in combination with S16, A. baumannii, 3 h, Bliss Independence model",Yes
same,Synergistic? (Yes/No) HAS*,"[3]; antibiotic in combination with S16, A. baumannii, 3 h, Highest Single Agent model",Yes
same,Interaction with S16 as evaluated by the Bliss Independence and HSA models (in words),[4]; 3 h time point,synergize
same,MBC in combination,[4]; [14],1.8 µM
same,Antimicrobial activity on co-administration with S16 compared to compounds alone (log change in CFU/mL),"[4]; all compounds at MBC50, t=3 h",significantly enhanced antimicrobial activity
same,Synergistic? (Yes/No) Bliss*,[4]; [15],Yes
same,Synergistic? (Yes/No) HAS*,[4]; [16],Yes
same,Interaction with S16 as evaluated by the Bliss Independence and HSA models (in words),[5]; 3 h time point,synergize
same,Fold reduction of MBC,[5]; MBCeff in combination versus MBC alone,3.7 fold
same,MBC in combination,[5]; [14],2.9 µM
same,Antimicrobial activity on co-administration with S16 compared to compounds alone (log change in CFU/mL),"[5]; all compounds at MBC50, t=3 h",Enhanced antimicrobial activity
same,Synergistic? (Yes/No) Bliss*,[5]; [15],Yes
same,Synergistic? (Yes/No) HAS*,[5]; [16],Yes
same,"MBC in combination, MBCeff",[5]; [17],2.9 μM and 2.9^a μM
same,Interaction with S16 as evaluated by the Bliss Independence and HSA models (in words),[6]; 3 h time point,synergize
same,Fold reduction of MBC,[6]; MBCeff with S16 versus MBC alone,6.5 fold
same,MBC in combination,[6]; [14],11.8 µM
same,Antimicrobial activity on co-administration with S16 compared to compounds alone (log change in CFU/mL),"[6]; all compounds at MBC50, t=3 h",Enhanced antimicrobial activity
same,Synergistic? (Yes/No) Bliss*,[6]; [15],Yes
same,Synergistic? (Yes/No) HAS*,[6]; [16],Yes
same,"MBC in combination, MBCeff",[6]; [17],5.9^a μM
same,MBC,[7],10.6 µM
same,MBC,[8],10.6 µM
same,MBC,[9],1.2 µM
same,MBC,[10],8.2 µM
same,MBC,[11],3.5 µM
same,"H4IIE cell viability reduced by, compared to the untreated control",[12],33%
same,MBC,[13],38.3 µM
